# Earlier results in patent US20170105937A1, “OLAPARIB CO-PRECIPITATE AND PREPARATION METHOD THEREOF” (CADILA HEALTHCARE LIMITED, priority 2015, published 2017).
# Conditions: poor solubility and moderate permeability
smiles,measurement,value
"O=C(c1cc(Cc2n[nH]c(=O)c3ccccc23)ccc1F)N1CCN(C(=O)C2CC2)CC1 [Olaparib, 4-[3-(4-cyclopropanecarbonyl-piperazine-1-carbonyl)-4-fluoro-benzyl]-2H-phthalazin-1-one]",Biopharmaceutics Classification System (BCS) class,class 4
